System: P12-Ichikawa
Assay: cell viability relative to DMSO control; higher = less cytotoxic
Details: 48 h
Outline: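 NOMO1, SEM and P12-Ichikawa leukemia cells spent at least four passages adapting to each medium before use. They were seeded at 500 cells/well (NOMO1, SEM) or 1000 cells/well (P12-Ichikawa) in 5 μl in 1536-well plates and pin-dosed with library compounds in DMSO at 11 threefold steps from 47 μM down to 0.79 nM. After 48 h at 37°C, CellTiter-Glo One luminescence was read. Viability is reported as a percentage of the DMSO wells on each plate, with cell-free wells as background.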

[1] = HPLM + 10% dialyzed FBS, 0.000781 µM
[2] = HPLM + 10% dialyzed FBS, 0.00234 µM
[3] = HPLM + 10% dialyzed FBS, 0.00702 µM
[4] = HPLM + 10% dialyzed FBS, 0.0211 µM
[5] = HPLM + 10% dialyzed FBS, 0.0632 µM
[6] = HPLM + 10% dialyzed FBS, 0.19 µM
[7] = HPLM + 10% dialyzed FBS, 0.569 µM
[8] = HPLM + 10% dialyzed FBS, 1.71 µM
[9] = HPLM + 10% dialyzed FBS, 5.12 µM
[10] = HPLM + 10% dialyzed FBS, 15.4 µM
[11] = HPLM + 10% dialyzed FBS, 46.1 µM
[12] = RPMI 5 mM glucose + 10% FBS, 0.000781 µM
[13] = RPMI 5 mM glucose + 10% FBS, 0.00234 µM
[14] = RPMI 5 mM glucose + 10% FBS, 0.00702 µM
[15] = RPMI 5 mM glucose + 10% FBS, 0.0211 µM
[16] = RPMI 5 mM glucose + 10% FBS, 0.0632 µM
[17] = RPMI 5 mM glucose + 10% FBS, 0.19 µM
[18] = RPMI 5 mM glucose + 10% FBS, 0.569 µM
[19] = RPMI 5 mM glucose + 10% FBS, 1.71 µM
[20] = RPMI 5 mM glucose + 10% FBS, 5.12 µM
[21] = RPMI 5 mM glucose + 10% FBS, 15.4 µM
[22] = RPMI 5 mM glucose + 10% FBS, 46.1 µM
[23] = RPMI 5 mM glucose + 10% dialyzed FBS, 0.000781 µM
[24] = RPMI 5 mM glucose + 10% dialyzed FBS, 0.00234 µM
[25] = RPMI 5 mM glucose + 10% dialyzed FBS, 0.00702 µM
[26] = RPMI 5 mM glucose + 10% dialyzed FBS, 0.0211 µM
[27] = RPMI 5 mM glucose + 10% dialyzed FBS, 0.0632 µM
[28] = RPMI 5 mM glucose + 10% dialyzed FBS, 0.19 µM
[29] = RPMI 5 mM glucose + 10% dialyzed FBS, 0.569 µM
[30] = RPMI 5 mM glucose + 10% dialyzed FBS, 1.71 µM
[31] = RPMI 5 mM glucose + 10% dialyzed FBS, 5.12 µM
[32] = RPMI 5 mM glucose + 10% dialyzed FBS, 15.4 µM
[33] = RPMI 5 mM glucose + 10% dialyzed FBS, 46.1 µM

Row | Compound | cell viability [1] [%] | cell viability [2] [%] | cell viability [3] [%] | cell viability [4] [%] | cell viability [5] [%] | cell viability [6] [%] | cell viability [7] [%] | cell viability [8] [%] | cell viability [9] [%] | cell viability [10] [%] | cell viability [11] [%] | cell viability [12] [%] | cell viability [13] [%] | cell viability [14] [%] | cell viability [15] [%] | cell viability [16] [%] | cell viability [17] [%] | cell viability [18] [%] | cell viability [19] [%] | cell viability [20] [%] | cell viability [21] [%] | cell viability [22] [%] | cell viability [23] [%] | cell viability [24] [%] | cell viability [25] [%] | cell viability [26] [%] | cell viability [27] [%] | cell viability [28] [%] | cell viability [29] [%] | cell viability [30] [%] | cell viability [31] [%] | cell viability [32] [%] | cell viability [33] [%]
1 | CN1CCC(CC1)=C2C3=C(C=CC=C3)\C=C/C4=C2C=CC=C4 | 106 | 125 | 117 | 130 | 122 | 122 | 126 | 133 | 128 | 118 | 108 | – | – | – | – | – | – | – | – | – | – | – | – | – | – | – | – | – | – | – | – | – | –
2 | Nc1ccc([S+](=O)([O-])Nc2ncccn2)cc1 | 118 | 120 | 124 | 95.8 | 128 | 131 | 126 | 125 | 125 | 119 | 126 | 115 | 114 | 122 | 74.2 | 133 | 118 | 127 | 126 | 132 | 133 | 106 | – | – | – | – | – | – | – | – | – | – | –
3 | Oc1c(Cl)cc(Cl)c2cccnc12 | 107 | 112 | 109 | 100 | 105 | 107 | 112 | 103 | 109 | 97.4 | 70.6 | 100 | 95.4 | 109 | 107 | 108 | 102 | 101 | 101 | 96.2 | 80.8 | 30.5 | 99.1 | 99.4 | 110 | 95.2 | 102 | 101 | 103 | 99.1 | 96.8 | 85.5 | 21.8
4 | CC(C)Cn1cnc2c(N)nc3ccccc3c21 | 124 | 113 | 107 | 116 | 115 | 112 | 113 | 106 | 87.6 | 75.1 | 89.9 | 113 | 123 | 116 | 119 | 111 | 115 | 110 | 107 | 106 | 106 | 85.1 | 111 | 111 | 109 | 115 | 115 | 112 | 105 | 107 | 104 | 102 | 81
5 | C1CN\2C[C@@H](\N=C2S1)C3=CC=CC=C3 | 94.4 | 105 | 99.8 | 104 | 108 | 106 | 107 | 108 | 103 | 108 | 111 | 96.3 | 105 | 96 | 93.4 | 98.7 | – | 102 | 106 | 99.8 | 103 | 105 | 87 | 93.9 | 90.1 | 94.4 | 101 | 102 | 92.7 | 98.3 | 101 | 96.8 | 90.8
6 | CCOC(=O)O[C@]1(C(=O)OCCl)CC[C@H]2[C@@H]3CCC4=CC(=O)C=C[C@]4(C)[C@H]3[C@@H](O)C[C@@]21C | 97.6 | 102 | 99.3 | 107 | 105 | 118 | 101 | 104 | 86.1 | 101 | 102 | 95.9 | 95.8 | 95.7 | 95 | 110 | 102 | 111 | 100 | 76 | 97.1 | 88.5 | 89 | 93.3 | 94.6 | 98.3 | 99.3 | 91.1 | 98.4 | 102 | 83.4 | 98.5 | 90.3
7 | O=C1N\C=N/C2=C1C=N[NH]2 | 83.8 | 89.6 | 83.5 | 92.1 | 83.9 | 93.2 | 91.1 | 87.6 | 72.4 | 77.8 | 25.4 | 83.9 | 91.4 | 84 | 87.9 | 80.6 | 81.7 | 82.8 | 79.1 | 84.2 | 84.4 | 67.3 | 81.7 | 86.2 | 79.1 | 88.7 | 78.7 | 79.3 | 90.5 | 85.2 | 87.1 | 85.2 | 68
8 | CC(C)(C)C1=CC(=C(NC(=O)C/2=C/NC3=C(C=CC=C3)C2=O)C=C1O)C(C)(C)C | 123 | 113 | 124 | 120 | 121 | 124 | 120 | 118 | 118 | 114 | 112 | 124 | 139 | 124 | 133 | 119 | 124 | 131 | 115 | 117 | 116 | 112 | – | – | – | – | – | – | – | – | – | – | –
9 | Cc1ccc(-c2cc(C(F)(F)F)nn2-c2ccc([S+](N)(=O)[O-])cc2)cc1 | 86.8 | 125 | 118 | 118 | 120 | 110 | 128 | 117 | 115 | 112 | 105 | – | – | – | – | – | – | – | – | – | – | – | 111 | 119 | 122 | 113 | 115 | 123 | 123 | 122 | 121 | 105 | 102
10 | COc1cc(OC)c(C(=O)CCCN2CCCC2)c(OC)c1 | 116 | 120 | 128 | 119 | 120 | 116 | 112 | 113 | 118 | 117 | 116 | 119 | 123 | 132 | 130 | 125 | 124 | 122 | 109 | 112 | 111 | 111 | – | – | – | – | – | – | – | – | – | – | –
